# Measured values: ChEMBL document CHEMBL1201862, “PubChem BioAssay data set” (2004)
# Counter-ions that a name gives are not always drawn. Calls of active or inactive are those of the source.
# Assays:
# [1] = P. falciparum late gametocyte killing, dose response, luminescence (AID 1117278); format: functional, cell-based;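 note: gametocytes exposed to compound for 24 hours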
# [2] = Jurkat T cell cytotoxicity, dose response, cytotoxicity control for P. falciparum gametocyte viability project, luminescence (AID 1117277); format: functional, cell-based;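 note: potency reflects loss of cellular ATP meaning fewer viable cells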
# [3] = target: Glutathione-S-transferase (Schistosoma japonicum, UniProt Q26513); experiment: biotin-GST/anti-GST TR-FRET signal inhibitors, dose response, artefact control for Vif-APOBEC3G degradation inhibitor project, biochemical (AID 1117362); format: functional
# Sequence of Glutathione-S-transferase (Q26513 whole entry): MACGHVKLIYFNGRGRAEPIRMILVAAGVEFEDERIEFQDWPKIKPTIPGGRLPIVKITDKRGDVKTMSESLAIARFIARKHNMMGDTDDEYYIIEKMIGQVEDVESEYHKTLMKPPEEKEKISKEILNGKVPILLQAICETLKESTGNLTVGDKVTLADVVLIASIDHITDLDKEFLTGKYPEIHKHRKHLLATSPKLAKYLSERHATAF
# [4] = tested on: Streptococcus sp. 'group A'; experiment: growth inhibition of control SK(-) GAS strain, dose response, counter-screen for streptokinase expression inhibitor project, luminescence, kanamycin, BacTiterGlo, confirmation (AID 1900); format: functional, organism-based
# Streptokinase A = target: T1, Streptokinase A (Streptococcus pyogenes serotype M1, UniProt P10520); experiment: S. pyogenes streptokinase expression inhibitors, potency, dose response, plasminogen activation absorbance, OD405 (AID 1914); format: functional, Streptococcus pyogenes M1 GAS;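 note: secreted streptokinase activity via plasminogen activation per viability signal from cell pellet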
# T1 sequence (P10520 whole entry): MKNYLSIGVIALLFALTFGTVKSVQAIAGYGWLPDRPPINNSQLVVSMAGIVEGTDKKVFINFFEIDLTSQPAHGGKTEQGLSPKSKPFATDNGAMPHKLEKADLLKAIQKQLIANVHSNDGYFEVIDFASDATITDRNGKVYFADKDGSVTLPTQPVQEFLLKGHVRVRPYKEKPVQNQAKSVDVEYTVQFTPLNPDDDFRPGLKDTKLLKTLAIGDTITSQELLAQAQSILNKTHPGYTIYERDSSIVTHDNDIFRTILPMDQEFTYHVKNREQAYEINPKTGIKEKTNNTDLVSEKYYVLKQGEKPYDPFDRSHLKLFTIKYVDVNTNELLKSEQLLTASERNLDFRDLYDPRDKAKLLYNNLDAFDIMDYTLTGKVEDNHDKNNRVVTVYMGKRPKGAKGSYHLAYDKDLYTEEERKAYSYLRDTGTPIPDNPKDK
# [5] = growth suppression of PTEN-null colon cells, dose response, cell-based, HCT116 PTEN knockout (AID 1047); format: functional;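 note: HCT116 colon tumor cells with PTEN knocked out; cells exposed to compound for 60 hours before readout; potency for loss of cell viability measured by luminescence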
# [6] = growth suppression of beta-catenin-knockout colon cells, dose response, cell-based, HCT116, human colon tumor (AID 1045); format: functional;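 note: HCT116 colon tumor cells with beta catenin knocked out; cells exposed to compound for 60 hours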
# Streptococcus = experiment: Group A Streptococcus viability loss, dose response, counter-screen for streptokinase expression inhibitor project, luminescence, BacTiterGlo (AID 1915); format: functional, organism-based;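 note: potency for reduction of bacterial viability or growth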
# [7] = THP-1 cell cytotoxicity, dose response, cytotoxicity control for non-replicating M. tuberculosis project (AID 489025); format: functional
# [8] = HepG2 cell cytotoxicity, dose response, cytotoxicity control for non-replicating M. tuberculosis project (AID 489018); format: functional; settings: Mycobacterium tuberculosis
# [9] = Vero E6 cell cytotoxicity, dose response, cytotoxicity control for non-replicating M. tuberculosis project, secondary assay (AID 492998); format: functional, VeroE6; settings: Vero C1008
# [10] = target: T2, Microphthalmia-associated transcription factor (Homo sapiens, UniProt O75030); experiment: TRPM1 promoter luciferase signal decrease, dose response, MITF inhibitor project, cell-based, SK-MEL-5, cherry-picked, set 3 (AID 493073); format: functional
# T2 sequence (O75030 whole entry): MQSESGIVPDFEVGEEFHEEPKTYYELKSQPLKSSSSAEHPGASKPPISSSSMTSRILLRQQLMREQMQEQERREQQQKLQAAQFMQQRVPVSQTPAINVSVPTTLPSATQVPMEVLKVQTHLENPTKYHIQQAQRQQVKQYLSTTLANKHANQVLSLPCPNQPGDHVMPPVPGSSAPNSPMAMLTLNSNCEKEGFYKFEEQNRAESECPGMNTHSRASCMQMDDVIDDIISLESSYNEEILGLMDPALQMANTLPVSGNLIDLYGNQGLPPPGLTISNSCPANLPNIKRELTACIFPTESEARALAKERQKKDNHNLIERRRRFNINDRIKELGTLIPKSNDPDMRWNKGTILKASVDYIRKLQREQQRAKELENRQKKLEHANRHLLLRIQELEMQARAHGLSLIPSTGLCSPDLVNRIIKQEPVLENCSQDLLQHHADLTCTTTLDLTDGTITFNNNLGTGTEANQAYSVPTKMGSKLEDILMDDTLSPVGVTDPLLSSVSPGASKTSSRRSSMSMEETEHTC
# cells [11] = format: functional
# INS1 = experiment: beta cell apoptosis inhibitors, cytokine rescue, dose response, luminescence, retest (AID 449756); format: functional, cell-based; settings: Rattus norvegicus;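 note: cell death triggered by IL-1 beta plus TNF-alpha plus IFN-gamma mixture; protective hits raise ATP signal compared with cytokine alone wells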
# [12] = TRPM1 promoter luciferase reporter signal decrease, dose response, MITF inhibitor project, cell-based, SK-MEL-5, dry powder, set 9 (AID 651588); format: functional
# [13] = A375 melanoma cell viability loss, dose response, counter-screen for MITF inhibitor project, CellTiter-Glo luminescence, dry powder, set 4 (AID 624364); format: functional, cell-based; settings: A-375;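 note: A375 melanoma cells are MITF independent so this is a counter screen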
# [14] = A375 melanoma cell cytotoxicity, dose response, counter-screen for MITF inhibitor project, CellTiter-Glo luminescence, dry powder, set 7 (AID 624490); format: functional, cell-based; settings: A-375
# [15] = MITF Orthogonal Assay: MALME3 CTG Assay Measured in Cell-Based System Using Plate Reader - 2084-04_Inhibitor_Dose_DryPowder_Activity_Set6.; format: functional; settings: MALME-3
# [16] = SK-MEL-5 parental cell viability reduction, dose response, orthogonal assay for MITF inhibitor project, CellTiter-Glo luminescence, dry powder, set 8 (AID 651586); format: functional, cell-based
# [17] = MALME3 melanoma cell viability reduction, dose response, orthogonal assay for MITF inhibitor project, CellTiter-Glo luminescence, dry powder, set 5 (AID 651584); format: functional, cell-based; settings: MALME-3
# [18] = SK-MEL-5 parental line viability, dose response, MITF inhibitor project, cell-based, CellTiter-Glo, dry powder, set 6 (AID 624429); format: functional
# [19] = MITF Orthogonal Assay: SK-MEL-5 CTG Assay Measured in Cell-Based System Using Plate Reader - 2084-02_Inhibitor_Dose_DryPowder_Activity_Set5.; format: functional
# [20] = A375 melanoma cell cytotoxicity, dose response, counter-screen for MITF inhibitor project, CellTiter-Glo luminescence, dry powder, set 6 (AID 624488); format: functional, cell-based; settings: A-375
# [21] = A375 melanoma cell viability loss, dose response, counter-screen for MITF modulator project, CellTiter-Glo luminescence, dry powder, set 9 (AID 651591); format: functional, cell-based; settings: A-375
# [22] = MITF Measured in Cell-Based System Using Plate Reader - 2084-01_Inhibitor_Dose_DryPowder_Activity_Set6.; format: functional
# [23] = A375 melanoma cell cytotoxicity, dose response, counter-screen for MITF inhibitor project, CellTiter-Glo luminescence, dry powder, set 2 (AID 624489); format: functional, cell-based; settings: A-375;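 note: actives are compounds lowering A375 viability meaning general cytotoxicity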
# [24] = MITF Measured in Cell-Based System Using Plate Reader - 2084-01_Inhibitor_Dose_DryPowder_Activity_Set7.; format: functional
# [25] = P. falciparum Dd2 growth inhibitors, dose response, SYBR Green, dry powder samples, set 9 (AID 1159568); format: functional, cell-based
# [26] = P. falciparum Dd2 growth inhibitors, dose response, SYBR Green, cherry-picked samples (AID 1159567); format: functional, cell-based
# [27] = target: G-protein coupled receptor 183 (Homo sapiens, UniProt P32249); experiment: SAR confirmation of small molecule antagonists of the EBI2 receptor via a luminescent beta-arrestin assa.; format: functional
# Sequence of G-protein coupled receptor 183 (P32249 whole entry): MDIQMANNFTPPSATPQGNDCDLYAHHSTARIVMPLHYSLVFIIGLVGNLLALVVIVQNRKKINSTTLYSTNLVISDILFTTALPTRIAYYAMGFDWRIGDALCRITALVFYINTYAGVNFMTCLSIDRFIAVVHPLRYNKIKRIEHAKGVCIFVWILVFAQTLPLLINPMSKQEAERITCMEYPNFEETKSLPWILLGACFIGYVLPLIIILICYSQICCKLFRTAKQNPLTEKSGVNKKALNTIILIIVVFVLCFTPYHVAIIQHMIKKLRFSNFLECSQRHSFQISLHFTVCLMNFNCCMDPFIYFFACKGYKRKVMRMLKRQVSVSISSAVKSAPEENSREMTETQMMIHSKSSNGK
# [28] = target: Metabotropic glutamate receptor 7 (Homo sapiens, UniProt Q14831); experiment: mGlu7 positive allosteric modulators, dose response, cell-based, calcium mobilization, Galpha15 (AID 743384); format: functional
# Sequence of Metabotropic glutamate receptor 7 (Q14831 whole entry): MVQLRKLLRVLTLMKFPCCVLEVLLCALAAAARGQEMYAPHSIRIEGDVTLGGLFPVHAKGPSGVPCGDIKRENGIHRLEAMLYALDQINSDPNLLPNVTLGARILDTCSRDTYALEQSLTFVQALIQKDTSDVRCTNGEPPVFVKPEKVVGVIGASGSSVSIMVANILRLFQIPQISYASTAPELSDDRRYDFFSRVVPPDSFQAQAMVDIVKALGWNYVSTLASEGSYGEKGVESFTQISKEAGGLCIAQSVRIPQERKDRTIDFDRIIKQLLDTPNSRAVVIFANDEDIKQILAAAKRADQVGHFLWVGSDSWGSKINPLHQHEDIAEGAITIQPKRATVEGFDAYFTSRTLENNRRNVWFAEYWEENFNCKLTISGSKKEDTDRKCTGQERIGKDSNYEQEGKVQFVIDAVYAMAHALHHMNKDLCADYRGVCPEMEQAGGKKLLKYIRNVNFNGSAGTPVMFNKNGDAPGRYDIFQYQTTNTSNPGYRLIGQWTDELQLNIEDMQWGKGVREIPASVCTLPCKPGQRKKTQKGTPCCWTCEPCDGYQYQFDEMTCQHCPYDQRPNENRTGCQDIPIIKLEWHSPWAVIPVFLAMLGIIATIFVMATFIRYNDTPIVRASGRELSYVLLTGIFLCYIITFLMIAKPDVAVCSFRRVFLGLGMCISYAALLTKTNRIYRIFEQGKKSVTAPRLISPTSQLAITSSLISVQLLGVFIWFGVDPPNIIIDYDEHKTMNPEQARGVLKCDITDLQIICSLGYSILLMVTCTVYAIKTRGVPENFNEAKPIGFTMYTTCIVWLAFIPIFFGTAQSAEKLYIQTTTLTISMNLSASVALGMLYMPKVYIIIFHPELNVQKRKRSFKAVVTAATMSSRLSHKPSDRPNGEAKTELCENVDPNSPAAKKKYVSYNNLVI
# [29] = Dose-response inhibition of insulin secretion in a rat insulinoma line at 5 mM glucose (AID 1117331); format: functional, cell-based; settings: INS-1E
# cells [30] = format: functional, cell-based; settings: INS-1E
smiles,measurement,setting,value
CN(C)S(=O)(=O)N1CCC(Oc2ccc(C(=O)NCc3cnn(C)c3)cc2)CC1,IC50,[1],> 109 µM (inactive)
same,IC50,[2],> 83.3 µM (inactive)
O=[N+]([O-])c1ccc(-c2ccc(/C=N/c3c(-c4ccco4)nc4ccccn34)o2)cc1,IC50,[3],50.3 µM (active)
Cc1nc2ccccc2n1/N=C/c1ccc([N+](=O)[O-])s1,EC50,[4],3.63 µM (active)
same,EC50,Streptokinase A,> 150 µM (not active)
same,EC50,[5],3.72 µM (active)
same,EC50,[6],2.47 µM (active)
same,EC50,Streptococcus,10.7 µM (active)
same,CC50,[7],5.13 µM (active)
same,CC50,[8],12.4 µM (active)
same,CC50,[9],9.87 µM (active)
same,AC50,[10],3.51 µM (active)
same,IC50,cells [11],0.43 µM (active)
same,AC50,INS1,2.01 µM (active)
same,AC50,[12],7.21 µM (active)
same,AC50,[13],> 70 µM (inactive)
same,AC50,[14],> 70 µM (inactive)
same,AC50,[15],22.9 µM (active)
same,AC50,[16],> 70 µM (inactive)
same,AC50,[17],22.9 µM (active)
same,AC50,[18],10.7 µM (active)
same,AC50,[19],6.24 µM (active)
same,AC50,[20],47.3 µM (active)
same,AC50,[21],> 70 µM (inactive)
same,AC50,[22],2.52 µM (active)
same,AC50,[23],> 70 µM (inactive)
same,AC50,[24],1.1 µM (active)
CN1C(=O)c2cc(NC(=O)c3cccc(F)c3)ccc2OC[C@H]2O[C@H](CC(=O)NCC3CCCCC3)CC[C@H]21,AC50,[25],8.12 µM (active)
same,AC50,[26],8.99 µM (active)
CCN1CCN(C(=O)/C=C/c2ccc(Br)cc2)CC1,IC50,[27],0.0158 µM (active)
CCOc1ccc(-n2c(C)cc(C(=O)CSCc3cccc(C)c3)c2C)cc1,EC50,[28],10 µM (active)
CCN(CC)CCCN(c1ccccc1)C1Cc2ccccc2C1 [APRINDINE HYDROCHLORIDE],IC50,[29],7.13 µM (inactive)
same,IC50,cells [30],> 33.3 µM (inactive)
